Test results from patent US20250353873A1, “COMPOUNDS AND METHODS FOR MODULATING APOE EXPRESSION” (Ionis Pharmaceuticals, Inc., priority 2024, published 2025).
Strand notation (5' to 3'): a small letter for the sugar, then the base; units joined by * are phosphorothioate-linked, units joined directly phosphodiester-linked; [ ] holds rarer units or linkages, { } end groups; capitals alone tell only the bases. [ms] = mesyl phosphoramidate linkage; e = 2'-O-(2-methoxyethyl) (MOE); k = constrained ethyl (cEt); [5mC] = 5-methylcytosine; d = 2'-deoxy (DNA)

Columns and labels:
human APOE RNA [1] = assay: Dose-dependent reduction of human APOE RNA in HepG2 cells, electroporation, 20,000 cells per well, average of GAPDH- and PPIA-normalized results (Example 4, Table 12); type: cell-based; details: HepG2, 20,000 cells per well; for IC50: approximately 24 hours
Description: HepG2 cells plated at a density of 20,000 cells per well were treated by electroporation with various concentrations of modified oligonucleotide as specified in the tables below. […] APOE RNA levels were measured using the human primer probe set RTS3073 (described herein above). APOE RNA levels were normalized to human GAPDH, and human PPIA. Human GAPDH was amplified using human primer probe set RTS104 (described herein above). Human PPIA was amplified using human primer probe set mk_cycloA_2nd (described herein above) The average of the GAPDH-normalized results and the PPIA-normalized results are presented in the table below as percent APOE RNA, relative to the amount of APOE RNA in untreated control cells (% UTC). The half maximal inhibitory concentration (IC50) of each modified oligonucleotide was calculated in GraphPad Prism 10 (GraphPad Software, San Diego, CA) and is also presented in the table below.

human APOE RNA [2] = assay: Activity in APOE C57BL/6NTac-Apoeem7250 knock-in mice, single ICV bolus, 4 weeks (Example 10); type: in vivo; details: single ICV bolus 300 μg, 4 weeks post treatment, normalized to mouse Ppia
Outline: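 Human APOE RNA, quantified by real-time RT-PCR with RTS3073 and normalized to mouse Ppia, was read in cortical brain and spinal cord 4 weeks post dosing. Dosing was a single ICV bolus of 300 μg per knock-in mouse; values are % of PBS-treated animals.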

human APOE RNA [3] = assay: Activity in APOE C57BL/6NTac-Apoeem7250 knock-in mice, single ICV bolus, 20 weeks (Example 13); type: in vivo; details: single ICV bolus 300 μg, 20 weeks post treatment, normalized to mouse Ppia
Outline: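 Cortical and spinal cord RNA was assayed by real-time RT-PCR for human APOE, normalized to mouse Ppia and reported as percent of PBS controls. Tissue was taken twenty weeks after one 300 μg intracerebroventricular bolus in APOE knock-in mice, 4 per group.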

human APOE RNA [4] = assay: Dose-dependent inhibition of human APOE RNA in differentiated SH-SY5Y cells, free uptake, 5 days (Example 5); type: cell-based; details: 5 days (Table 14)
Description: Modified oligonucleotides selected from the examples above were tested at various doses in differentiated SH-SY5Y cells. The modified oligonucleotides were tested in a series of experiments that had the same culture conditions.
Differentiated SH-SY5Y cells plated at a density of 10,000 cells per well were treated by free uptake with various concentrations of modified oligonucleotide as specified in the tables below. […] APOE RNA levels were measured using the human primer probe set RTS3073 (described herein above). APOE RNA levels were normalized to human PPIA. Human PPIA was amplified using human primer probe set mk_cycloA_2nd (described herein above). Results are presented as percent APOE RNA, relative to the amount of APOE RNA in untreated control cells (% UTC). The half maximal inhibitory concentration (IC50) of each modified oligonucleotide was calculated in GraphPad Prism 10 (GraphPad Software, San Diego, CA) and is also presented in the tables below.

human APOE RNA [5] = assay: Activity in APOE C57BL/6NTac-Apoeem7250 knock-in mice, single ICV bolus, 8 weeks (Example 11); type: in vivo; details: single ICV bolus 300 μg, 8 weeks post treatment, normalized to mouse Ppia
Outline: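 Cortical and spinal cord human APOE RNA quantified by RT-qPCR 8 weeks after a single 300 μg ICV dose in knock-in mice, Ppia-normalized. Values are percent of levels in PBS-treated animals.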

human APOE RNA [6] = assay: Activity in APOE C57BL/6NTac-Apoeem7250 knock-in mice, single ICV bolus, 16 weeks (Example 12); type: in vivo; details: single ICV bolus 300 μg, 16 weeks post treatment, normalized to mouse Ppia
Outline: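 A single 300 μg intracerebroventricular dose was given, with PBS-treated mice as reference; cortical and spinal cord tissue was taken 16 weeks later. RT-qPCR quantified human APOE RNA, Ppia-normalized, expressed relative to PBS animals (% control).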

Substance | APOE RNA (% UTC) (human APOE RNA [1]; 5 nM) | APOE RNA (% UTC) (human APOE RNA [1]; 13 nM) | APOE RNA (% UTC) (human APOE RNA [1]; 33 nM) | APOE RNA (% UTC) (human APOE RNA [1]; 82 nM) | APOE RNA (% UTC) (human APOE RNA [1]; 205 nM) | APOE RNA (% UTC) (human APOE RNA [1]; 512 nM) | APOE RNA (% UTC) (human APOE RNA [1]; 1,280 nM) | APOE RNA (% UTC) (human APOE RNA [1]; 3,200 nM) | APOE RNA (% UTC) (human APOE RNA [1]; 8,000 nM) | APOE RNA (% UTC) (human APOE RNA [1]; 20,000 nM) | IC50 (human APOE RNA [1]) [nM] | APOE RNA (% control) Cortex (human APOE RNA [2]) [% control] | APOE RNA (% control) Spinal Cord (human APOE RNA [2]) [% control] | APOE RNA (% control) Cortex (human APOE RNA [3]) [% control] | APOE RNA (% control) Spinal Cord (human APOE RNA [3]) [% control] | APOE RNA (% UTC) (human APOE RNA [4]; 5 nM) | APOE RNA (% UTC) (human APOE RNA [4]; 13 nM) | APOE RNA (% UTC) (human APOE RNA [4]; 33 nM) | APOE RNA (% UTC) (human APOE RNA [4]; 82 nM) | APOE RNA (% UTC) (human APOE RNA [4]; 205 nM) | other results
1778128: modified oligonucleotide complementary to human APOE RNA (eA*e[5mC]eTeTkGkG*dT*dG[ms]dA[ms]dA*dT*d[5mC]*dT*dT*dT*dA[ms]kTeT*eA*eA; antisense) [compound 1778128] | 96 | 95 | 83 | 67 | 60 | 37 | 24 | 25 | 22 | 14 | 350 | 31 | 40 | 60 | 22 | 91 | 51 | 99 | 63 | 74 | APOE RNA (% UTC) (human APOE RNA [4]; 512 nM): 32 % UTC; APOE RNA (% UTC) (human APOE RNA [4]; 1,280 nM): 30 % UTC; APOE RNA (% UTC) (human APOE RNA [4]; 3,200 nM): 40 % UTC; APOE RNA (% UTC) (human APOE RNA [4]; 8,000 nM): 33 % UTC; APOE RNA (% UTC) (human APOE RNA [4]; 20,000 nM): 23 % UTC; IC50 (human APOE RNA [4]): 530 nM; APOE RNA (% control) Cortex (human APOE RNA [5]): 27 % control; APOE RNA (% control) Spinal Cord (human APOE RNA [5]): 25 % control; APOE RNA (% control) Cortex (human APOE RNA [6]): 34 % control; APOE RNA (% control) Spinal Cord (human APOE RNA [6]): 22 % control
1778130: modified oligonucleotide complementary to human APOE RNA (eA*e[5mC]eTeTeG*kG*dT*dG[ms]dA[ms]dA*dT*d[5mC]*dT*dT*dT*dA[ms]kTkT*eA*eA; antisense) [compound 1778130] | 99 | 100 | 85 | 72 | 52 | 45 | 20 | 12 | 18 | 9 | 310 | 31 | 34 | 48 | 19 | 78 | 75 | 75 | 51 | 54 | APOE RNA (% UTC) (human APOE RNA [4]; 512 nM): 56 % UTC; APOE RNA (% UTC) (human APOE RNA [4]; 1,280 nM): 51 % UTC; APOE RNA (% UTC) (human APOE RNA [4]; 3,200 nM): 31 % UTC; APOE RNA (% UTC) (human APOE RNA [4]; 8,000 nM): 24 % UTC; APOE RNA (% UTC) (human APOE RNA [4]; 20,000 nM): 12 % UTC; IC50 (human APOE RNA [4]): 370 nM; APOE RNA (% control) Cortex (human APOE RNA [5]): 23 % control; APOE RNA (% control) Spinal Cord (human APOE RNA [5]): 18 % control; APOE RNA (% control) Cortex (human APOE RNA [6]): 34 % control; APOE RNA (% control) Spinal Cord (human APOE RNA [6]): 15 % control
1778131: modified oligonucleotide complementary to human APOE RNA (eA*e[5mC]eTeTeGkG*dT*dG[ms]dA[ms]dA*dT*d[5mC]*dT*dT*dT*dA[ms]kTkT*eA*eA; antisense) [compound 1778131] | 102 | 86 | 85 | 70 | 56 | 36 | 25 | 25 | 5 | 6 | 290 | 29 | 49 | 65 | 43 | 69 | 103 | 89 | 69 | 64 | APOE RNA (% UTC) (human APOE RNA [4]; 512 nM): 31 % UTC; APOE RNA (% UTC) (human APOE RNA [4]; 1,280 nM): 45 % UTC; APOE RNA (% UTC) (human APOE RNA [4]; 3,200 nM): 55 % UTC; APOE RNA (% UTC) (human APOE RNA [4]; 8,000 nM): 25 % UTC; APOE RNA (% UTC) (human APOE RNA [4]; 20,000 nM): 12 % UTC; IC50 (human APOE RNA [4]): 690 nM; APOE RNA (% control) Cortex (human APOE RNA [5]): 29 % control; APOE RNA (% control) Spinal Cord (human APOE RNA [5]): 24 % control; APOE RNA (% control) Cortex (human APOE RNA [6]): 34 % control; APOE RNA (% control) Spinal Cord (human APOE RNA [6]): 17 % control
1785598: modified oligonucleotide complementary to human APOE RNA (k[5mC]*kT*kT*dG[ms]dG[ms]dT[ms]dG[ms]dA[ms]dA[ms]dT*d[5mC]*dT*dT*dT*dA*dT[ms]kT*kA*dA[ms]kA; antisense) [compound 1785598] | 103 | 97 | 88 | 75 | 56 | 36 | 23 | 9 | 11 | 11 | 290 | 29 | 40 | 72 | 30 | 72 | 59 | 90 | 57 | 59 | APOE RNA (% UTC) (human APOE RNA [4]; 512 nM): 39 % UTC; APOE RNA (% UTC) (human APOE RNA [4]; 1,280 nM): 23 % UTC; APOE RNA (% UTC) (human APOE RNA [4]; 3,200 nM): 23 % UTC; APOE RNA (% UTC) (human APOE RNA [4]; 8,000 nM): 9 % UTC; APOE RNA (% UTC) (human APOE RNA [4]; 20,000 nM): 11 % UTC; IC50 (human APOE RNA [4]): 180 nM; APOE RNA (% control) Cortex (human APOE RNA [5]): 23 % control; APOE RNA (% control) Spinal Cord (human APOE RNA [5]): 16 % control; APOE RNA (% control) Cortex (human APOE RNA [6]): 36 % control; APOE RNA (% control) Spinal Cord (human APOE RNA [6]): 24 % control
